Source: PMC11980376, “Lactate dehydrogenase is the Achilles’ heel of Lyme disease bacterium Borreliella burgdorferi” (mBio, 2025)

How the values were obtained:
BbLDH [1] = target: T1, BbLDH (Borreliella burgdorferi, UniProt O51114); assay: Enzyme kinetics of inhibition with varying pyruvate as substrate, 0–100 µM inhibitor; type: biochemical; settings: for type of inhibition for pyruvate substrate (Lineweaver–Burk plots): Fig. S7
T1 construct: we expressed and purified a full-length N-terminal His- and FLAG-tagged BB_0087 recombinant protein (rBB_0087); 10xHis (N); FLAG (N); made in house; host or cells: E. coli Rosetta-gami 2 (DE3)
Experimental: The inhibitory effect of gossypol and the four lead inhibitors of BbLDH was performed using 0–100 µM of inhibitors or an equal volume of DMSO vehicle in 50 mM Tris-HCl buffer (pH 7.0) containing 100 ng of BbLDH, 0.5 mM NADH, 2.4 mM pyruvate, and 3 mM FBP at 37°C. All experiments were repeated at least twice. The amount of NADH produced or consumed was extrapolated from the NADH standard curve and plotted in GraphPad Prism 10 (GraphPad Software, La Jolla, CA, USA) using Allosteric Sigmoidal mode to obtain the Vmax and Km values. Lineweaver–Burk plots were generated using the mean reciprocal values of substrates and velocities obtained from the inhibition studies.

HeLa cells = assay: Cell viability, crystal violet assay, 72 h; type: cell-based, human
Experimental: (§1) Immortalized cervical carcinoma cells (HeLa) and TIGKs were purchased from ATCC. HeLa cells were cultured and maintained in Dulbecco’s Modified Eagle Medium with high glucose and supplemented with 10% FBS and 100 µg/mL of penicillin and streptomycin. TIGK cells were cultured in a serum-free keratinocyte growth medium (KGM; Lifeline Cell Technology, MD) as described previously ([56]). Cells were incubated at 37°C, 5% CO2 incubator.
(§2) To determine the toxicity of LDH inhibitors on eukaryotic cells, HeLa and TIGK cells were seeded onto a 96-well plate at 10^4 cells per well the day before drug treatment. Cell culture media were removed the next day and replaced with culture media containing the specified concentration of DMSO, gossypol, 45923, or 350085. Mock-treated wells were included for cell viability normalization purposes. Cells were incubated with inhibitors for 72 h. To determine the cell viability, the crystal violet assay was used as described ([57]). Briefly, cell culture media were decanted from the 96-well plate and washed once with water. A volume of 50 µL of 0.5% crystal violet staining solution (0.5 g crystal violet powder, 80 mL ddH2O, 20 mL methanol) were incubated for 20 min at room temperature (RT) with gentle shaking. Plates were washed 4–5 times by soaking in ddH2O followed by gentle tapping to remove any remaining liquid. Plates were air-dried at RT. A 200 µL of methanol was added to each well. The resulting plates were incubated for 20 min at RT with gentle shaking followed by optical density measurement at 570 nm (OD570) using a Varioskan LUX multimode microplate reader (Thermo Fisher Scientific). The OD570 of mock cells was set to 100% and the percentage of viable cells treated with inhibitors was determined by comparing the average OD570 values of treated wells to mock wells. The experiment was performed in triplicate wells with two technical replicates and two biological replicates. Two-way analysis of variance was used for statistical analysis with significant values of P < 0.05.

[2] = system: telomerase immortalized gingival keratinocytes (TIGKs); assay: Cell viability, crystal violet assay, 72 h; type: cell-based, human
Experimental: as §1, §2

BbLDH [3] = target: T1, BbLDH; assay: Small compound library screening (Natural Products Set IV) for inhibition of BbLDH activity; type: biochemical; settings: Extended Data Fig. 7A
Experimental: To identify potential novel LDH inhibitors against BbLDH, the Natural Products Set IV library containing 419 natural compounds selected from the DTP Open Repository collection was obtained from the National Cancer Institute (NCI). All compounds were dissolved in DMSO to a working stock solution of 10 mM. Primary screening was performed using a label-free HTS protocol ([54]) in 384-well plates. Buffer B (20 mM Tris pH 7.4, 0.005% Triton X-100, 0.005% BGG, 2 mM DTT) containing 10 nM BbLDH, 75 µM pyruvate, and 50 µM NADH was dispensed into each well containing pre-dispensed inhibitors to a final concentration of 10 µM in 50 µL working volume per well. Fluorescence was measured using an excitation wavelength of 340 nm and an emission wavelength of 482 nm. Readings were recorded every second over a total duration of 5 min. Gossypol and DMSO were included as positive and negative controls, respectively. Fluorescent signals were plotted over time for each compound and analyzed using linear regression to determine the slope of reduction compared to DMSO and gossypol. Twenty-three compounds with a reduced slope in comparison to DMSO were selected for a second round of screening.
For the secondary screening, a lactate dehydrogenase activity assay kit (Sigma Aldrich) was used to determine the inhibitory effect of selected small compounds on BbLDH activity. Reactions were performed following the manufacturer’s protocol using 10 and 25 µM of small compounds and 10 nM BbLDH per well. Gossypol and DMSO were included as positive and negative controls, respectively. Compounds that reduced the LDH activity of BbLDH compared to DMSO treatment wells were selected for further analysis.

B. burgdorferi = assay: In vitro growth analysis of wild-type B. burgdorferi with inhibitors, Petroff-Hausser counting; type: cell-based, Borreliella burgdorferi; settings: 0–300 µM tested, BSK-II medium, 34°C
Experimental: To measure the growth of the WT B31 A3-68 and 87^mut, 87^mut was first cultivated in the presence of 1 mM IPTG until the stationary phase along with the WT. Cells were harvested via centrifugation and washed with PBS to remove all traces of IPTG. A concentration of 1 × 10^5 cells/mL of WT or 87^mut were inoculated into 10 mL of fresh BSK-II and incubated at 34°C with or without 1 mM IPTG. Bacterial cells were enumerated daily until the cells entered the stationary growth phase (~1 × 10^8 cells/mL) using a Petroff-Hausser counting chamber, as previously described ([100]). At the end of the growth study, cultures were harvested for immunoblot analysis to detect the expression of BbLDH. Growth analyses were repeated in triplicates, and the results were expressed as the means ± standard errors of the means (SEM). To determine the growth inhibition of LDH inhibitors on B. burgdorferi, 10^5 cells/mL of stationary WT cultures were inoculated into a fresh 5 mL BSK-II medium containing the specified concentration of inhibitors. Equal volumes of DMSO were included as negative controls to rule out the inhibitory effect of DMSO on the growth of B. burgdorferi. Cells were maintained at 34°C with a 3.4% CO2 incubator, and cell numbers were enumerated every 2 days until the cells reached the stationary growth phase using the Petroff-Hausser counting chamber.

BB_0087 (BbLDH) = target: T2, BB_0087 (BbLDH) (Borreliella burgdorferi, UniProt O51114); assay: Lactate dehydrogenase activity assay kit, NADH generation from lactate by recombinant BB_0087; type: biochemical; settings: 100 µM gossypol; 50 ng purified recombinant protein
T2 construct: we expressed and purified a full-length N-terminal His- and FLAG-tagged BB_0087 recombinant protein (rBB_0087); 10xHis (N); FLAG (N); made in house; host or cells: E. coli Rosetta-gami 2 (DE3)
Experimental: To establish the LDH activity of BbLDH, we first used a commercial lactate dehydrogenase activity assay kit (Sigma Aldrich, St. Louis, MO) to measure the ability of BbLDH to reduce NAD to NADH following the manufacturer’s instruction. Commercial LDH inhibitor gossypol (catalog # G8761, Sigma Aldrich) was dissolved in DMSO at a stock concentration of 100 mM. A concentration of 1 µg/µL of recombinant wild-type or H178A BbLDH stocks was diluted 1:20 in the LDH assay buffer to a final working volume of 400 µL per well. A 100 µM of gossypol or DMSO was added to selected wild-type BbLDH wells to determine the inhibitory effect of gossypol on BbLDH activity. Reactions were set up in triplicate wells along with NADH standards. The LDH activity was calculated using the formulation provided by the manufacturer.

BbLDH [4] = target: T1, BbLDH; assay: Enzyme kinetics of inhibition, lactate to pyruvate reaction, NADH read at OD340; type: biochemical; settings: Fig. 1F
Experimental: The enzyme kinetics of BbLDH, with substrates pyruvate or lactate, was monitored by the reduction or oxidation of NADH at OD340 as previously described ([92]) using a Varioskan LUX multimode microplate reader (Thermo Fisher Scientific, Rockford, IL) with minor modifications. Briefly, the conversion of pyruvate to lactate activity was performed at 37°C in 50 mM Tris-HCl buffer pH 7.0 containing 100 ng of BbLDH, 0.5 mM NADH, 2.4 mM pyruvate and with/without 3 mM FBP. The conversion of lactate to pyruvate activity was measured at 37°C in sodium bicarbonate buffer (pH 7.0) containing 100 ng of BbLDH, 1 mM NAD^+, 0–300 mM sodium L-lactate, with/without 3 mM FBP. The kinetic parameters of BbLDH were determined using 0–6.0 mM pyruvate, 0–1.0 mM NADH, 0–2.0 mM NAD^+, 50 mM Tris-HCl buffer, pH 5.0–10.0, or reaction temperature of 25°C, 30°C, and 37°C. All reactions were performed in 96-well plates with a final volume of 200 µL per well.
All experiments were repeated at least twice. The amount of NADH produced or consumed was extrapolated from the NADH standard curve and plotted in GraphPad Prism 10 (GraphPad Software, La Jolla, CA, USA) using Allosteric Sigmoidal mode to obtain the Vmax and Km values. Lineweaver–Burk plots were generated using the mean reciprocal values of substrates and velocities obtained from the inhibition studies.

T1 sequence (O51114 whole entry): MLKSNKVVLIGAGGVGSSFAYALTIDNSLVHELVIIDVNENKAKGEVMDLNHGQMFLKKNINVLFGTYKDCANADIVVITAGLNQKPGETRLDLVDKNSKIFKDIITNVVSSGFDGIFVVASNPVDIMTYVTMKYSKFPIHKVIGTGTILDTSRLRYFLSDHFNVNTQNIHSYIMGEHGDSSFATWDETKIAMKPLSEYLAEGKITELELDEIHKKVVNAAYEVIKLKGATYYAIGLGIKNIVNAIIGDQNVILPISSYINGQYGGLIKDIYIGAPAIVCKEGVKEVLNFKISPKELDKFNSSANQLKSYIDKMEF
T2 sequence (O51114 whole entry): as above

COc1ccc2c(c1)O[C@H]1c3ccc(O)cc3OC[C@@H]21 (stereo in doubt) [compound 350085, Medicarpin]
Ki (BbLDH [1]): 205 µM
type of inhibition for pyruvate substrate (Lineweaver–Burk plots) (BbLDH [1]): competitive inhibitors
concentration at which growth inhibition of HeLa cells begins (HeLa cells): 5 µM
concentration at which toxicity to TIGKs begins ([2]; crystal violet, non-cancerous cell line): 20 µM
reduction in LDH activity (hit cutoff) (BbLDH [3]): ≥ 75%

CCC(C)(O)C(=O)OC1C(=O)OC2CC3C(C)=CC(O)C(O)C3(C)C3C4(O)OCC23C1C(C)C4O (stereo not drawn) [compound 14975]
Ki (BbLDH [1]): 66 µM
type of inhibition for pyruvate substrate (Lineweaver–Burk plots) (BbLDH [1]): competitive inhibitors

COc1c2occc2cc2ccc(=O)oc12 [compound 45923, Methoxsalen]
type of inhibition for pyruvate substrate (Lineweaver–Burk plots) (BbLDH [1]): competitive inhibitors
Ki (BbLDH [1]; varying pyruvate as substrate, 0.5 mM NADH, 3 mM FBP, pH 7.0, 37°C, Fig. 5, read-out: Ki): 54 µM
concentration at which inhibitory effect on growth was observed (B. burgdorferi): 100 µM
concentration at which growth inhibition of HeLa cells begins (HeLa cells): 10 µM
concentration at which toxicity to TIGKs begins ([2]; human): > 50 µM
reduction in LDH activity (hit cutoff) (BbLDH [3]): ≥ 75%

CCC(C)c1occ2c(O)c(C(=O)O)c(=O)cc-2c1C (stereo not drawn) [compound 114344]
Ki (BbLDH [1]): 349 µM
type of inhibition for pyruvate substrate (Lineweaver–Burk plots) (BbLDH [1]): competitive inhibitors
reduction in LDH activity (hit cutoff) (BbLDH [3]): ≥ 75%

Cc1cc2c(C(C)C)c(O)c(O)c(C=O)c2c(O)c1-c1c(C)cc2c(C(C)C)c(O)c(O)c(C=O)c2c1O [gossypol]
LDH activity of BB_0087 (NADH generated from lactate) upon treatment (BB_0087 (BbLDH)): completely abolished
Ki (BbLDH [4]): 13 µM
Ki (BbLDH [1]): 36 µM
type of inhibition for pyruvate substrate (Lineweaver–Burk plots) (BbLDH [1]): uncompetitive inhibition
concentration at which inhibitory effect on growth was observed (B. burgdorferi): 100 µM
